Laboratory results as given in ChEMBL document CHEMBL5360532, “Current scenario of quinolone hybrids with potential antibacterial activity against ESKAPE pathogens” (Eur J Med Chem, 2023).
In brackets after ≈: the same amount, converted by molar mass.

What was measured:
Staphylococcus aureus [1] = assay: Potency index, ratio of ciprofloxacin MIC to test compound MIC for antimicrobial activity against Staphylococcus aureus MTCC 424 assessed as bacterial growth inhibition measured after 24 hrs by microdilution assay; format: functional
Escherichia coli [2] = assay: Antibacterial activity against Escherichia coli MTCC 1687 assessed as bacterial growth inhibition measured after 24 hrs by microdilution assay; format: functional
Escherichia coli [3] = assay: Potency index, ratio of ciprofloxacin MIC to test compound MIC for antimicrobial activity against Escherichia coli MTCC 1687 assessed as bacterial growth inhibition measured after 24 hrs by microdilution assay; format: functional
Staphylococcus aureus [4] = assay: Antibacterial activity against Staphylococcus aureus MTCC 737 assessed as bacterial growth inhibition measured after 24 hrs by microdilution assay; format: functional
Pseudomonas aeruginosa [5] = assay: Antibacterial activity against Pseudomonas aeruginosa MTCC 424 assessed as bacterial growth inhibition measured after 24 hrs by microdilution assay; format: functional
Staphylococcus aureus [6] = assay: Antibacterial activity against Staphylococcus aureus MLS16 MTCC 2940 assessed as bacterial growth inhibition measured after 24 hrs by microdilution assay; format: functional
Staphylococcus aureus [7] = assay: Potency index, ratio of ciprofloxacin MIC to test compound MIC for antimicrobial activity against Staphylococcus aureus MLS16 MTCC 2940 assessed as bacterial growth inhibition measured after 24 hrs by microdilution assay; format: functional
Staphylococcus aureus [8] = assay: Antibacterial activity against Staphylococcus aureus ATCC 6538p assessed as bacterial growth inhibition by agar dilution assay; format: functional
Escherichia coli [9] = assay: Antibacterial activity against Escherichia coli ATCC 25922 assessed as bacterial growth inhibition by agar dilution assay; format: functional
Escherichia coli [10] = assay: Antibacterial activity against Escherichia coli assessed as bacterial growth inhibition by two fold microdilution assay; format: functional
Klebsiella pneumoniae [11] = assay: Antibacterial activity against Klebsiella pneumoniae assessed as bacterial growth inhibition by two fold microdilution assay; format: functional
Staphylococcus aureus [12] = assay: Antibacterial activity against methicillin resistant Staphylococcus aureus assessed as bacterial growth inhibition by two fold microdilution assay; format: functional
Staphylococcus aureus [13] = assay: Antibacterial activity against methicillin sensitive Staphylococcus aureus assessed as bacterial growth inhibition by two fold microdilution assay; format: functional
Pseudomonas aeruginosa [14] = assay: Antibacterial activity against Pseudomonas aeruginosa ATCC43288 assessed as bacterial growth inhibition measured after 18 to 24 hrs inhibition by broth microdilution assay; format: functional; settings: time 18-24 hrs
Staphylococcus aureus [15] = assay: Antibacterial activity against methicillin resistant Staphylococcus aureus ATCC 12493 assessed as bacterial growth inhibition by broth microdilution assay; format: functional
Escherichia coli [16] = assay: Antibacterial activity against Escherichia coli assessed as bacterial growth inhibition by broth microdilution assay; format: functional
Escherichia coli [17] = assay: Antibacterial activity against Escherichia coli ATCC35218 assessed as bacterial growth inhibition measured after 18 to 24 hrs inhibition by broth microdilution assay; format: functional; settings: time 18-24 hrs
[18] = test system: Mycobacterium tuberculosis; assay: Antimycobacterial activity against Mycobacterium tuberculosis H37Rv assessed as bacterial growth inhibition; format: functional
[19] = test system: Mycobacterium tuberculosis; assay: Antimycobacterial activity against Mycobacterium tuberculosis H37Rv assessed as bacterial growth inhibition by LJ slant assay; format: functional
Pseudomonas aeruginosa [20] = assay: Antibacterial activity against Pseudomonas aeruginosa assessed as bacterial growth inhibition measured after 20 hrs by serial dilution method; format: functional
Staphylococcus aureus [21] = assay: Antibacterial activity against Staphylococcus aureus assessed as bacterial growth inhibition measured after 20 hrs by serial dilution method; format: functional
Pseudomonas aeruginosa [22] = assay: Antibacterial activity against Pseudomonas aeruginosa assessed as bacterial growth inhibition by agar cup diffusion assay; format: functional
Acinetobacter baumannii [23] = assay: Antibacterial activity against Acinetobacter baumannii assessed as bacterial growth inhibition by serial dilution method; format: functional
Klebsiella pneumoniae [24] = assay: Antibacterial activity against Klebsiella pneumoniae assessed as bacterial growth inhibition by serial dilution method; format: functional
Escherichia coli [25] = assay: Antibacterial activity against Escherichia coli assessed as zone of inhibition at 50 mg/ml by agar well diffusion assay; format: functional; settings: read-out: IZ
Escherichia coli [26] = assay: Antibacterial activity against Escherichia coli assessed as zone of inhibition at 50 mg/ml cup plate assay; format: functional; settings: read-out: IZ
Escherichia coli [27] = assay: Antibacterial activity against Escherichia coli assessed as bacterial growth inhibition by agar cup diffusion assay; format: functional
Klebsiella pneumoniae [28] = assay: Antibacterial activity against Klebsiella pneumoniae assessed as bacterial growth inhibition by agar cup diffusion assay; format: functional
Enterococcus faecalis [29] = assay: Antibacterial activity against Enterococcus faecalis assessed as bacterial growth inhibition by broth microdilution assay; format: functional
Pseudomonas aeruginosa [30] = assay: Antibacterial activity against Pseudomonas aeruginosa assessed as zone of inhibition at 250 ug/ml by agar well diffusion assay; format: functional; settings: read-out: IZ
Escherichia coli [31] = assay: Antibacterial activity against Escherichia coli assessed as bacterial growth inhibition by agar well diffusion assay; format: functional, organism-based
Staphylococcus aureus [32] = assay: Antibacterial activity against Staphylococcus aureus assessed as bacterial growth inhibition by agar cup diffusion assay; format: functional
Enterococcus faecalis [33] = assay: Antibacterial activity against Enterococcus faecalis assessed as zone of inhibition at 50 mg/ml by agar well diffusion assay; format: functional; settings: read-out: IZ
Klebsiella pneumoniae [34] = assay: Antibacterial activity against Klebsiella pneumoniae assessed as bacterial growth inhibition by broth microdilution assay; format: functional
Pseudomonas aeruginosa [35] = assay: Antibacterial activity against Pseudomonas aeruginosa assessed as bacterial growth inhibition by agar well diffusion assay; format: functional, organism-based
Staphylococcus aureus [36] = assay: Antibacterial activity against Staphylococcus aureus assessed as zone of inhibition at 50 mg/ml by agar well diffusion assay; format: functional; settings: read-out: IZ
Escherichia coli [37] = assay: Antibacterial activity against fluoroquinolone Escherichia coli assessed as bacterial growth inhibition by broth microdilution assay; format: functional
Klebsiella pneumoniae [38] = assay: Antibacterial activity against Klebsiella pneumoniae assessed as zone of inhibition at 250 ug/ml by agar well diffusion assay; format: functional; settings: read-out: IZ
Staphylococcus aureus [39] = assay: Antibacterial activity against Staphylococcus aureus ATCC 25923 assessed as bacterial growth inhibition measured after 16 hrs by broth microdilution assay; format: functional
Acinetobacter baumannii [40] = assay: Antibacterial activity against Acinetobacter baumannii assessed as bacterial growth inhibition by broth microdilution assay; format: functional
[41] = test system: Mycobacterium tuberculosis; assay: Antimycobacterial activity against multidrug Mycobacterium tuberculosis assessed as bacterial growth inhibition by LJ slant assay; format: functional
Staphylococcus aureus [42] = assay: Antibacterial activity Staphylococcus aureus ATCC 25923 assessed as bacterial growth inhibition by broth microdilution assay; format: functional
Escherichia coli [43] = assay: Antibacterial activity against Escherichia coli assessed as bacterial growth inhibition measured after 20 hrs by serial dilution method; format: functional
Staphylococcus aureus [44] = assay: Antibacterial activity against Staphylococcus aureus assessed as zone of inhibition at 250 ug/ml by agar well diffusion assay; format: functional; settings: read-out: IZ
Staphylococcus aureus [45] = assay: Antibacterial activity against Staphylococcus aureus assessed as bacterial growth inhibition measured after 24 hrs by agar cup diffusion assay; format: functional
Staphylococcus aureus [46] = assay: Antibacterial activity against Staphylococcus aureus assessed as bacterial growth inhibition by agar well diffusion assay; format: functional, organism-based
Klebsiella pneumoniae [47] = assay: Antibacterial activity against Klebsiella pneumoniae AUMC B-77 assessed as bacterial growth inhibition by agar cup diffusion method; format: functional
Streptococcus pneumoniae = assay: Antibacterial activity against Streptococcus pneumoniae assessed as zone of inhibition at 50 mg/ml by agar well diffusion assay; format: functional; settings: read-out: IZ
Klebsiella pneumoniae [48] = assay: Antibacterial activity against Klebsiella pneumoniae assessed as bacterial growth inhibition measured after 20 hrs by serial dilution method; format: functional
Staphylococcus aureus [49] = assay: Antibacterial activity against methicillin resistant Staphylococcus aureus assessed as bacterial growth inhibition by agar cup diffusion assay; format: functional
Staphylococcus aureus [50] = assay: Antibacterial activity against methicillin resistant Staphylococcus aureus assessed as bacterial growth inhibition by microdilution assay; format: functional
Pseudomonas aeruginosa [51] = assay: Antibacterial activity against Pseudomonas aeruginosa […] assessed as bacterial growth inhibition measured after 18 to 24 hrs inhibition by broth microdilution assay; format: functional; settings: time 18-24 hrs
[52] = test system: Mycobacterium tuberculosis; assay: Antimycobacterial activity against extensive drug Mycobacterium tuberculosis assessed as bacterial growth inhibition by LJ slant assay; format: functional
Escherichia coli [53] = assay: Antibacterial activity against Escherichia coli ATCC 25922 assessed as zone of inhibition at 50 mg/ml by agar diffusion assay; format: functional; settings: read-out: IZ
Escherichia coli [54] = assay: Antibacterial activity against Escherichia coli assessed as bacterial growth inhibition by serial dilution method; format: functional
Staphylococcus aureus [55] = assay: Antibacterial activity against Staphylococcus aureus AUMC B-73 assessed as bacterial growth inhibition by agar cup diffusion method; format: functional
Staphylococcus aureus [56] = assay: Antibacterial activity against Staphylococcus aureus assessed as zone of inhibition at 50 mg/ml cup plate assay; format: functional; settings: read-out: IZ

## COc1ccc(-c2cc(-c3c(O)c4ccccc4[nH]c3=O)nc(N)c2C#N)cc1
Staphylococcus aureus [1]
  Ratio: 2
Escherichia coli [2]
  MIC: 2.34 µg/mL (≈ 6.09 µM)
Escherichia coli [3]
  Ratio: 2
Staphylococcus aureus [4]
  MIC: 2.34 µg/mL (≈ 6.09 µM)
Pseudomonas aeruginosa [5]
  MIC: 2.34 µg/mL (≈ 6.09 µM)
Staphylococcus aureus [6]
  MIC: 2.34 µg/mL (≈ 6.09 µM)
Staphylococcus aureus [7]
  Ratio: 2

## Cc1cc(N2CCN(c3cc4c(cc3F)c(=O)c(C(=O)O)cn4C3CC3)CC2)nc(Cl)n1
Staphylococcus aureus [8]
  MIC: 7.4 µg/mL (≈ 16.2 µM)
Escherichia coli [9]
  MIC: 10.5 µg/mL (≈ 22.9 µM)

## O=C(O)c1cn([C@@H]2C[C@@H]2F)c2cc(N3CCN(Cn4nc(-c5ccncc5)n(Cc5ccccc5)c4=S)CC3)c(F)cc2c1=O
Escherichia coli [10]
  MIC: ≤ 3 ng/mL
Klebsiella pneumoniae [11]
  MIC: ≤ 3 ng/mL
Staphylococcus aureus [12]
  MIC: 0.5 µg/mL (≈ 0.794 µM)
Staphylococcus aureus [13]
  MIC: 0.5 µg/mL (≈ 0.794 µM)

## O=C(O)c1cn(C2CC2)c2cc(N3CCNCC3)c(F)cc2c1=O [CIPROFLOXACIN]
Pseudomonas aeruginosa [14]
  MIC: ≤ 0.03 µg/mL
Staphylococcus aureus [15]
  MIC: 0.49 µg/mL (≈ 1.48 µM)
Escherichia coli [16]
  MIC: 0.195 µg/mL (≈ 0.589 µM)
Escherichia coli [17]
  MIC: ≤ 0.03 µg/mL
[18]
  MIC: 11.2 µg/mL (≈ 34 µM)
[19]
  MIC: ≥ 2 µg/mL
Pseudomonas aeruginosa [20]
  MIC: 0.24 µg/mL (≈ 0.724 µM)
Staphylococcus aureus [21]
  MIC: 0.24 µg/mL (≈ 0.724 µM)
Pseudomonas aeruginosa [22]
  MIC: 8.62 µg/mL (≈ 26 µM)
Acinetobacter baumannii [23]
  MIC: 0.312 µg/mL (≈ 0.942 µM)
Klebsiella pneumoniae [24]
  MIC: 0.312 µg/mL (≈ 0.942 µM)
Escherichia coli [25]
  zone of inhibition at 50000 µg/mL: 33 mm
Escherichia coli [26]
  zone of inhibition at 50000 µg/mL: 13 mm
Escherichia coli [27]
  MIC: 1.9 µg/mL (≈ 5.73 µM)
Escherichia coli [2]
  MIC: 4.68 µg/mL (≈ 14.1 µM)
Klebsiella pneumoniae [28]
  MIC: 1.9 µg/mL (≈ 5.73 µM)
Enterococcus faecalis [29]
  MIC: 0.72 µg/mL (≈ 2.17 µM)
Pseudomonas aeruginosa [30]
  zone of inhibition at 250 µg/mL: 17 mm
Escherichia coli [31]
  IC50: 17.5 µM
  MIC: 1.06 µg/mL (≈ 3.2 µM)
Staphylococcus aureus [32]
  MIC: 0.5 µg/mL (≈ 1.51 µM)
Enterococcus faecalis [33]
  zone of inhibition at 50000 µg/mL: 30 mm
Klebsiella pneumoniae [34]
  MIC: 4 ng/mL (≈ 0.0121 µM)
Pseudomonas aeruginosa [35]
  IC50: 17.5 µM
  MIC: 1.06 µg/mL (≈ 3.2 µM)
Staphylococcus aureus [36]
  zone of inhibition at 50000 µg/mL: 33 mm
Escherichia coli [37]
  MIC: 0.72 µg/mL (≈ 2.17 µM)
Klebsiella pneumoniae [38]
  zone of inhibition at 250 µg/mL: 17 mm
Staphylococcus aureus [39]
  MIC: 0.78 µg/mL (≈ 2.35 µM)
Staphylococcus aureus [4]
  MIC: 4.68 µg/mL (≈ 14.1 µM)
Acinetobacter baumannii [40]
  MIC: 4 ng/mL (≈ 0.0121 µM)
[41]
  MIC: ≥ 2 µg/mL
Staphylococcus aureus [42]
  MIC: 4 µg/mL (≈ 12.1 µM)
Escherichia coli [43]
  MIC: 0.24 µg/mL (≈ 0.724 µM)
Staphylococcus aureus [44]
  zone of inhibition at 250 µg/mL: 17 mm
Staphylococcus aureus [45]
  MIC: 3.25 µg/mL (≈ 9.81 µM)
Staphylococcus aureus [46]
  IC50: 17.5 µM
  MIC: 1.06 µg/mL (≈ 3.2 µM)
Klebsiella pneumoniae [47]
  MIC: 3.6 µg/mL (≈ 10.9 µM)
Streptococcus pneumoniae
  zone of inhibition at 50000 µg/mL: 30 mm
Klebsiella pneumoniae [48]
  MIC: 0.24 µg/mL (≈ 0.724 µM)
Staphylococcus aureus [49]
  MIC: 5.49 µg/mL (≈ 16.6 µM)
Staphylococcus aureus [50]
  MIC: 0.5 µg/mL
Staphylococcus aureus [6]
  MIC: 4.68 µg/mL (≈ 14.1 µM)
Pseudomonas aeruginosa [51]
  MIC: ≤ 0.03 µg/mL
[52]
  MIC: ≥ 2 µg/mL
Escherichia coli [53]
  zone of inhibition at 50000 µg/mL: 26.3 mm
Escherichia coli [54]
  MIC: 0.312 µg/mL (≈ 0.942 µM)
Staphylococcus aureus [55]
  MIC: 1.6 µg/mL (≈ 4.83 µM)
Staphylococcus aureus [56]
  zone of inhibition at 50000 µg/mL: 11 mm
